Source: patent US7868173B2, “Prodrugs of benzoquinolizine-2-carboxylic acid” (Wockhardt Limited, priority 2006, dated 2011)

How the values were obtained:
[1] = Solubility analysis: aqueous solubility in buffer at physiological pH; assay type: physicochemical; details: 25-30° C.
Description: Solubility analysis: Method for determining aqueous solubility at different physiological pH at 25-30° C. temperature: To accurately weighed amount of test substance, particular buffer solution was added in portion (about 50 microliter portions) at 25-30° C. temperature till solid is completely dissolved and clear solution is obtained.

[2] = Pharmacokinetic (PK) study in Sprague Dawley rats, oral dose; assay type: in vivo; details: rat
Description: Method for pharmacokinetic (PK) study in Sprague Dawley rats: Pharmacokinetic study was conducted on male Sprague Dawley rats weighing 200-220 g fasted overnight. (2′S,5S)-9-fluoro-6,7-dihydro-8-(4-L-alaninyloxy-piperidin-1-yl)-5-methyl-1-oxo-1H,5H-benzo[i,j]-quinolizine-2-carboxylic acid methanesulfonic acid salt (A), (2′S,5S)-9-fluoro-6,7-dihydro-8-(4-L-alaninyloxy-piperidin-1-yl)-5-methyl-1-oxo-1H,5H-benzo[i,j]quinolizine-2-carboxylic acid hydrochloride salt (B) and (2′S,5S)-9-fluoro-6,7-dihydro-8-(4-L-valinyloxy-piperidin-1-yl)-5-methyl-1-oxo-1H,5H-benzo[i,j]quinolizine-2-carboxylic acid methanesulfonic acid salt (C) were dissolved in Milli Q water. Compounds A, B and C were administered at the dose of 50 mg/kg orally calculated on the basis of active ingredient. (5S)-9-fluoro -6,7-dihydro-8-(4-hydroxy-piperidin-1-yl)-5-methyl-1-oxo-1H,5H-benzo[i,j]quinolizine-2-carboxylic acid L-arginine salt (D) was dissolved in 1% Tween prior to use. Compounds A and D were administered at the dose of 200 mg/kg orally calculated on the basis of active ingredient. Dose volume was 0.5 ml/200g. Blood samples were collected at predetermined time intervals i.e. 0, 0.5, 1, 2, 4, 6 & 8 h in eppendorff vials containing 10 μl saturated solution of sodium fluoride. Plasma was collected after centrifugation of blood sample at 10000 rpm for 10 min. Plasma samples were analyzed on HPLC for determining drug levels. PK parameters AUC, Cmax were calculated by non-compartmental analysis by using Winnonlin software.

[3] = rats, intravenous route; cited from earlier work
[4] = repeated intravenous administration, injectable form; cited from earlier work
[5] = Oral bioavailability in animals; assay type: in vivo
[6] = over the pH range 8.0-9.5 at 28° C.; cited from earlier work
[7] = as compared to B, 50 mg/kg per os dose
[8] = as compared to D, 200 mg/kg per os dose
[9] = as compared to D, 50 mg/kg per os dose

CC(C)[C@H](N)C(=O)OC1CCN(c2c(F)cc3c(=O)c(C(=O)O)cn4c3c2CC[C@@H]4C)CC1 [(2′S,5S)-9-fluoro-6,7-dihydro-8-(4-L-valinyloxy-piperidin-1-yl)-5-methyl-1-oxo-1H,5H-benzo[i,j]quinolizine-2-carboxylic acid, reference compound]
Solubility (mg/ml) at pH 7 [1]: <1 mg/ml

CS(=O)(=O)O.C[C@H](N)C(=O)OC1CCN(c2c(F)cc3c(=O)c(C(=O)O)cn4c3c2CC[C@@H]4C)CC1 [A, (2′S,5S)-9-fluoro-6,7-dihydro-8-(4-L-alaninyloxy-piperidin-1-yl)-5-methyl-1-oxo-1H,5H-benzo[i,j]-quinolizine-2-carboxylic acid methanesulfonic acid salt]
Solubility (mg/ml) at pH 7 [1]: >200 mg/ml
% Increase in AUC [2, 7]: 175%
% Increase in Cmax [2, 7]: 300%
% Increase in AUC [2, 8]: 120%
% Increase in Cmax [2, 8]: 200%

C[C@H](N)C(=O)OC1CCN(c2c(F)cc3c(=O)c(C(=O)O)cn4c3c2CC[C@@H]4C)CC1.Cl
Solubility (mg/ml) at pH 7 [1]: 4 mg/ml

C[C@H]1CCc2c(N3CCC(O)CC3)c(F)cc3c(=O)c(C(=O)[O-])cn1c23.[Na+] [S-(−)-9-fluoro-6,7-dihydro-8-(4-hydroxypiperidin-1-yl)-5-methyl-1-oxo-1H,5H-benzo[i,j]quinolizine-2-carboxylic acid sodium salt]
propensity to cause phlebitis [3]: high propensity to cause phlebitis

CC(C)[C@H](N)C(=O)OC1CCN(c2c(F)cc3c(=O)c(C(=O)O)cn4c3c2CC[C@@H]4C)CC1.CS(=O)(=O)O
Solubility (mg/ml) at pH 7 [1]: >200 mg/ml

C[C@H]1CCc2c(N3CCC(O)CC3)c(F)cc3c(=O)c(C(=O)O)cn1c23.N=C(N)NCCC[C@H](N)C(=O)O.O.O.O.O [S-(−)-9-fluoro-6,7-dihydro-8-(4-hydroxypiperidin-1-yl)-5-methyl-1-oxo-1H,5H-benzo[i,j]quinolizine-2-carboxylic acid L-arginine salt tetrahydrate]
venous inflammation [4]: not causing venous inflammation
oral bioavailability [5]: poor

S-(−)-9-fluoro-6,7-dihydro-8-(4-hydroxypiperidin-1-yl)-5-methyl-1-oxo-1H,5H-benzo[i,j]quinolizine-2-carboxylic acid
Solubility (mg/ml) at pH 7 [1]: <1 mg/ml
aqueous solubility [6]: 800 to 2000 µg/mL
oral bioavailability [5]: poor

CC(C)[C@H](N)C(=O)OC1CCN(c2c(F)cc3c(=O)c(C(=O)O)cn4c3c2CC[C@@H]4C)CC1.CS(=O)(=O)O [C, (2′S,5S)-9-fluoro-6,7-dihydro-8-(4-L-valinyloxy-piperidin-1-yl)-5-methyl-1-oxo-1H,5H-benzo[i,j]quinolizine-2-carboxylic acid methanesulfonic acid salt]
% Increase in AUC [2, 9]: 92%
% Increase in Cmax [2, 9]: 97%

C[C@H]1CCc2c(N3CCC(O)CC3)c(F)cc3c(=O)c(C(=O)O)cn1c23.N=C(N)NCCC[C@H](N)C(=O)O [(5S)-9-fluoro-6,7-dihydro-8-(4-hydroxy-piperidin-1-yl)-5-methyl-1-oxo-1H,5H-benzo[i,j]quinolizine-2-carboxylic acid L-arginine salt]
propensity to cause phlebitis [3]: lower propensity to cause phlebitis
